According to US11691981B2, “Heterocyclic compounds, preparation methods therefor, and methods of uses thereof” (INVENTISBIO CO., LTD., priority 2019, dated 2023):

What was measured:
TGFβR2 = TGFβR2 (Homo sapiens (Human), UniProt P37173); experiment: TGFβR2 kinase inhibition assay (ADP-Glo); format: biochemical; conditions: 10 uM ATP, 120 min room temperature
Procedure: The TGFβR2 enzyme reaction was carried out as follows: 50 nL of compound in DMSO (or DMSO controls) were stamped into 384 white, low-volume plates. 2.5 μL of 2× enzyme solution (final enzyme concentration was 3 ng/uL in 40 mMTris, 7.5; 20 mM MgCl2; 0.1 mg/mL BSA; 1 mM DTT) was dispensed into assay plate. The plate was then sealed and spun at 1000 rpm for 30 s and incubated at room temperature for 10 min. Followed by addition of 2.5 μL of 2× substrate solution that contains both ATP (to make a final concentration of 10 uM) and TGFβR2 substrate (final concentration of 0.2 ug/uL). The plate was then sealed and spun at 1000 rpm for 30 s and the reaction was then incubated at room temperature for 120 min. After that 5 μL ADP-Glo™ Reagent was added into the assay wells to stop the reaction and deplete unconsumed ATP for 40 min at room temperature; then, 10 μL of Detection Reagent was added into the assay wells, followed by 40 min incubation to develop luminescence. The luminescence signal was then collected on Envision 2104 plate reader.

TGFβR1 = TGFβR1 (Homo sapiens (Human), UniProt P36897); experiment: TGFβR1 kinase inhibition assay (ADP-Glo Kinase Assay); format: biochemical; conditions: 40 nM TGFβR1 in 2x enzyme mix, 5.4 μM ATP in 2x substrate mix, 120 min RT
TGFβR1, sequence (P36897 34-503): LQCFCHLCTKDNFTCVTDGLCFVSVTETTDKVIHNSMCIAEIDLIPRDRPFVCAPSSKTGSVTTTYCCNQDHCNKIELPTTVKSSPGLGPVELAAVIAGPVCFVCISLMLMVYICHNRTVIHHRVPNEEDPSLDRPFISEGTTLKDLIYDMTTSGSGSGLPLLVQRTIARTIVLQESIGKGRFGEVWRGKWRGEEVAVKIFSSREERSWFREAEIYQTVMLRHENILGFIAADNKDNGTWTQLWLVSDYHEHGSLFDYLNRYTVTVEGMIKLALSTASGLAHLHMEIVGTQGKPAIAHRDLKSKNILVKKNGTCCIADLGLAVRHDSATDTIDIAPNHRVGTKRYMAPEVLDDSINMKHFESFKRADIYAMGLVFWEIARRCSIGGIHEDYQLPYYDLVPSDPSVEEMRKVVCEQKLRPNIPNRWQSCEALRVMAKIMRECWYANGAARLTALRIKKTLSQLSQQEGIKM
Procedure: TGFβR1 kinase assay was performed according to the instruction manual of the ADP-Glo™ Kinase Assay kit provided by Promega. Prepare 1× Kinase buffer (50 mM Tris pH7.5, 0.1% BSA, 10 mM MgCl2, 1 mM DTT). Before activation reaction was started, Compounds were dissolved in DMSO and make 100× solution with 3-fold serial dilution for a total of 10 concentrations. Transfer 50 nL compounds to 384-well plate according to plate map using the automated liquid handler. […] Add 5 μL ADP-Glo Reagent to terminate the kinase reaction and deplete the remaining ATP, incubate at RT for 60 minutes. Add 10 μL Kinase Detection Reagent to convert ADP to ATP and allow the newly synthesized ATP to be measured using a luciferin reaction, incubate at RT for 30 minutes. Collect luminescence data with Envision.

P-glycoprotein (MDR1) = experiment: P-glycoprotein substrate potential / permeability in MDR1-transfected MDCK cells; format: in vitro ADME; conditions: dog, pH 7.4; for Papp A→B at 2 h, 1 µM / Papp B→A at 2 h, 1 µM: MDCK-MDR1, 1 μM, two hours; for Papp A→B at 2 h, 1 µM: apical to basolateral; for Papp B→A at 2 h, 1 µM: basolateral to apical; for efflux ratio at 2 h, 1 µM: MDCK-MDR1, Papp (B-A)/Papp (A-B)
Procedure: MDCK-MDR1 cells were seeded into 96-well HTS Transwell plate at the density of 5.45×10^5/cm^2. Cells were cultivated for 4-7 days before the transport assay. Transepithelial electrical resistance (TEER) of MDCK-MDR1 monolayer was measured before the experiment with the Millicell Epithelial Volt-Ohm measuring system.
Transport assay: Cell monolayers were pre-incubated in transport medium (TM, HBSS with 25 mM HEPES, pH 7.4) for 30 min at 37° C. After preincubation, the study was initiated by adding the test compound to the donor side and TM to the receiver side. Compound transport was assessed at 1 μM in two directions (apical, AP to basolateral, BL and BL to AP) and the study was carried out in the presence and absence of P-gp inhibitor verapamil in both AP and BL compartments. After two hours incubation, aliquots of 50 μL from donor or receiver side were removed and mixed with 4 volumes of acetonitrile containing internal standards (200 nM alprazolam, 200 nM labetalol, 2 μM ketoprofen). Samples were analyzed by UPLC-MS/MS. All incubations were performed in duplicate. After the transport experiment, Lucifer Yellow leakage was measured in a fluorescence plate reader at 485 nm excitation and 530 nm emission.
Data Analysis: All calculations were carried out using Microsoft Excel. Peak areas are determined from extracted ion chromatograms.
The apparent permeability coefficient (Papp), in units of centimeter per second, was calculated for MDCK-MDR1 drug transport assays using the following equation: […]
Where VA is the volume (in mL) in the acceptor well, Area is the surface area of the membrane (0.143 cm2 for Transwell-96 Well Permeable Supports), and time is the total transport time in seconds.
The efflux ratio was determined using the following equation: […]
Where Papp (B-A) indicates the apparent permeability coefficient in basolateral to apical direction, and Papp (A-B) indicates the apparent permeability coefficient in apical to basolateral direction.

pooled human hepatocytes = experiment: Human hepatocyte clearance study; format: in vitro ADME; conditions: human hepatocytes, 0.5×10^6 viable cells/mL, 120 min
Procedure: (§1) The in vitro human hepatocyte clearance of compounds described here was studied using pooled human hepatocytes purchased from BioreclamationIVT (Westbury, N.Y., Cat #X008001, Lot #TQJ). The assay was conducted according to manufacturer's instruction. Briefly, 10 mM stock solutions of test compounds and positive control (Verapamil) were prepared in 100% DMSO. Thawing media (50 mL) used in the study consists of: 31 mL Williams E medium (GIBCO Cat #12551-032); 15 mL isotonic percoll (GE Healthcare Cat #17-0891-09); 500 uL 100× GlutaMax (GIBCO Cat #35050); 750 uL HEPES (GIBCO Cat #15630-080); 2.5 mL FBS (Corning Cat #35-076-CVR); 50 uL human insulin (GIBCO Cat #12585-014) and 5 uL dexamethasone (NICPBP). Incubation media is made of Williams E medium supplemented with 1× GlutaMax. Both thawing medium and incubation medium (serum-free) were placed in a 37° C. water bath for at least 15 minutes prior to use. Compound stock solutions were diluted to 100 μM by combining 198 μL of 50% acetonitrle/50% water and 2 μL of 10 mM stock solution. Verapamil was use as positive control in the assay. Vials of cryopreserved hepatocytes were removed from storage and thawed in a 37° C. water bath with gentle shaking. Contents of the vial were poured into the 50 mL thawing medium conical tube. Vials were centrifuged at 100 g for 10 minutes at room temperature. Thawing medium was aspirated and hepatocytes were re-suspended with serum-free incubation medium to yield ˜1.5×10^6 cells/mL. Hepatocyte viability and density were counted using a Trypan Blue exclusion, and then cells were diluted with serum-free incubation medium to a working cell density of 0.5×10^6 viable cells/mL. Then, a portion of the hepatocytes at 0.5×10^6 viable cells/mL was boiled for 5 minutes prior to adding to the plate as negative control to eliminate the enzymatic activity so that little or no substrate turnover should be observed. The boiled hepatocytes were used to prepare negative samples. Aliquots of 198 μL hepatocytes were dispensed into each well of a 96-well non-coated plate. The plate was placed in the incubator on an orbital shaker at 500 rpm for approximately 10 minutes. Aliquots of 2 μL of the 100 μM test compound or positive control were added into respective wells of the non-coated 96-well plate to start the reaction. This assay was performed in duplicate. The plate was incubated in the incubator on an orbital shaker at 500 rpm for the designated time points. Twenty-five microliter of contents were transferred and mixed with 6 volumes (150 μL) of cold acetonitrile with IS (200 nM imipramine, 200 nM labetalol and 200 nM diclofenac) to terminate the reaction at time points of 0, 15, 30, 60, 90 and 120 minutes. Samples were centrifuged at 3,220 g for 25 minutes and aliquots of 150 μL of the supernatants were used for LC-MS/MS analysis. For data analysis, all calculations were carried out using Microsoft Excel. Peak areas were determined from extracted ion chromatograms. The in vitro half-life (t1/2) of parent compound was determined by regression analysis of the percent parent disappearance vs. time curve. The in vitro half-life (in vitro ti) was determined from the slope value: in vitro t1/2=0.693/k. […] Scaling factors for in vivo intrinsic clearance prediction using human hepatocytes are listed as: liver weight (g liver/kg body weight): 25.7; hepatocyte concentration (10^6 cells/g liver): 99; scaling factor: 2544.3.

[1] = Human hepatocyte clearance study; format: in vitro ADME; conditions: pooled cryopreserved human hepatocytes (suspension); for hepatocyte CLint at 1 µM / half-life at 1 µM: human; for hepatocyte CLint at 1 µM: read-out: Human In vitro Clint; for half-life at 1 µM: read-out: Human In vitro T1/2; for CLint scaled at 1 µM: human hepatocytes, scaling factor 2544.3, read-out: Human Scale-up Clint
Procedure: as §1

TGFβR2, sequence (P37173 23-567): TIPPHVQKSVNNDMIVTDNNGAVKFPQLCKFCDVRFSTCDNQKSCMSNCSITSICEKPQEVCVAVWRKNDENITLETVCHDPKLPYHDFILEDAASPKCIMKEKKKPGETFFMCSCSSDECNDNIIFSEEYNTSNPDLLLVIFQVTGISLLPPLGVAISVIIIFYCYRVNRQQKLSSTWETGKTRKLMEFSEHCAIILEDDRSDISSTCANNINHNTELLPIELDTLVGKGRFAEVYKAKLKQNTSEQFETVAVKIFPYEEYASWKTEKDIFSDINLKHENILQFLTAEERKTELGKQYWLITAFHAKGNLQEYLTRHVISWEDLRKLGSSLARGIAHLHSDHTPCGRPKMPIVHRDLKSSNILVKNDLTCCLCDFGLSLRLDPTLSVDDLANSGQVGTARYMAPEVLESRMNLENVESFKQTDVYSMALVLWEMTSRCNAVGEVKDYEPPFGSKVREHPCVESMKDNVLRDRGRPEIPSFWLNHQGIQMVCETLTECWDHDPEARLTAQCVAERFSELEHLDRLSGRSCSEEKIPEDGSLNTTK

| SMILES | IC50 (TGFβR2) | IC50 (TGFβR1) | Papp A→B at 2 h, 1 µM (P-glycoprotein (MDR1)) | Papp B→A at 2 h, 1 µM (P-glycoprotein (MDR1)) | efflux ratio at 2 h, 1 µM (P-glycoprotein (MDR1)) | Human Hepatocyte Remaining Percentage @ 120 min (pooled human hepatocytes) | hepatocyte CLint at 1 µM [1] | half-life at 1 µM [1] | CLint scaled at 1 µM [1] |
| --- | --- | --- | --- | --- | --- | --- | --- | --- | --- |
| Cc1ccc(Oc2ccnc(Nc3ccnc(C(C)(C)O)c3)c2)c(C)n1 [Compound 57] | > 100000 nM | 21 nM | 12.4 ×10⁻⁶ cm/s | 18 ×10⁻⁶ cm/s | 1.46 | 89% | 2.4 µL/min/1e6 cells | 9.73 h | 6 mL/min/kg |
| Cc1ccc(Oc2ccnc(Nc3ccnc(C(C)(C)O)c3)c2)c(C2CC2)n1 [Compound 58] | 11000 nM | 39 nM |  |  |  |  |  |  |  |
| Cc1ccc(Oc2ccnc(Nc3ccc(S(N)(=O)=O)cc3)c2)c(C2CCOCC2)n1 [Compound 59] | 10000 nM | 32 nM |  |  |  |  |  |  |  |
| CC(C)(O)c1cc(Nc2cc(Oc3cn(C4CCC4)nc3C3CCOCC3)ccn2)ccn1 [Compound 67] | > 100000 nM | 51 nM |  |  |  |  |  |  |  |
| CC(C)(O)c1cc(Nc2cc(Oc3cn(C4CCCC4)nc3C3CCOCC3)ccn2)ccn1 [Compound 68] | > 100000 nM | 631 nM |  |  |  |  |  |  |  |
| CC(C)(O)c1cc(Nc2cc(Oc3cn(CC(F)(F)F)nc3C3CCOCC3)ccn2)ccn1 [Compound 69] | > 100000 nM | 454 nM |  |  |  |  |  |  |  |
| CC1(C)OC(=N)c2ccc(Nc3cc(Oc4cn(C5CC5)nc4C4CCOCC4)ccn3)cc21 [Compound 78] | > 100000 nM | 22 nM |  |  |  |  |  |  |  |
| CC1(C)OC(=O)c2ccc(Nc3cc(Oc4cn(C5CC5)nc4C4CCOCC4)ccn3)cc21 [Compound 79] | 73000 nM | 29 nM |  |  |  |  |  |  |  |
| CC(C)(O)c1cc(Nc2cc(Oc3cn(C4CC4)nc3C3CCOCC3)ccn2)ccn1 [Compound A, 2-(4-((4-((1-cyclopropyl-3-(tetrahydro-2H-pyran-4-yl)-1H-pyrazol-4-yl)oxy)pyridin-2-yl)amino)pyridin-2-yl)propan-2-ol, reference compound] |  |  | 2.75 ×10⁻⁶ cm/s | 37.8 ×10⁻⁶ cm/s | 13.7 | 48% | 12.5 µL/min/1e6 cells | 1.85 h | 31.7 mL/min/kg |
